The values that follow come from ChEMBL document CHEMBL1154088, “Synthesis, biological evaluation and docking studies of novel benzopyranone congeners for their expected activity as anti-inflammatory, analgesic and antipyretic agents” (Bioorg Med Chem, 2009).

For series [1], the system named is Rattus norvegicus. Put plainly: Antiinflammatory activity against carrageenan-induced foot paw edema in rat assessed as reduction in paw size at 20 mg/kg, sc administered 30 mins before carrageenan challenge measured after 3 hrs relative to control. Particulars: route subcutaneous. It is filed as functional. Also on record: scale not given: the % may be the effect or the level left. For orientation: Carrageenan injected into the paw causes an acute inflammation.

Series [2] has as its system Rattus norvegicus. Put plainly: Antipyretic activity against yeast-induced hyperpyrexia in hyperthermic rat assessed as rectal temperature at 100 mg/kg, sc administered 18 hrs after yeast challenge measured after 4 hrs (Rvb=39.17 +/- 0.20 degC). The series is classed as functional. Particulars: route subcutaneous.
Series [3] relates to Rattus norvegicus. Put plainly: Antipyretic activity against yeast-induced hyperpyrexia in hyperthermic rat assessed as rectal temperature at 100 mg/kg, sc administered 18 hrs after yeast challenge measured after 2 hrs (Rvb=39.11 +/- 0.26 degC). It is filed as functional. Particulars: route subcutaneous.
For series [4], the system named is Rattus norvegicus. In words: Antipyretic activity against yeast-induced hyperpyrexia in hyperthermic rat assessed as rectal temperature at 100 mg/kg, sc administered 18 hrs after yeast challenge measured after 3 hrs (Rvb=39.20 +/- 0.24 degC). It is filed as functional. Particulars: route subcutaneous.
Series [5] concerns Rattus norvegicus. Put plainly: Antipyretic activity against yeast-induced hyperpyrexia in hyperthermic rat assessed as rectal temperature at 100 mg/kg, sc administered 18 hrs after yeast challenge measured after 1 hr (Rvb=39.24 +/- 0.22 degC). It is filed as functional. Particulars: route subcutaneous.
The subject of series [6] is Mus musculus. In words: Analgesic activity in mouse assessed as protection against acetic acid-induced writhing at 5 mg/kg, sc administered 30 mins before acetic acid challenge measured after 3 hrs relative to control. Particulars: route subcutaneous. The series is classed as functional. Background: An intraperitoneal irritant provokes the stretching counted in writhing tests.

The test system of series [7] is Mus musculus. Put plainly: Analgesic activity in mouse assessed as protection against acetic acid-induced writhing at 5 mg/kg, sc administered 30 mins before acetic acid challenge measured after 2 hrs relative to control. The series is classed as functional. Particulars: route subcutaneous.
The test system of series [8] is Mus musculus. Put plainly: Analgesic activity in mouse assessed as protection against acetic acid-induced writhing at 5 mg/kg, sc administered 30 mins before acetic acid challenge measured after 1 hr relative to control. The series is classed as functional. Particulars: route subcutaneous.
Series [9] concerns Mus musculus. In words: Analgesic activity in mouse assessed as protection against acetic acid-induced writhing at 5 mg/kg, sc administered 30 mins before acetic acid challenge measured after 4 hrs relative to control. Particulars: route subcutaneous. The series is classed as functional.
The test system of series [10] is Mus musculus. In words: Analgesic activity in mouse assessed as protection against acetic acid-induced writhing at one-tenth of LD50 administered subcutaneously 30 mins before acetic acid challenge measured after 3 hrs relative to control. The series is classed as functional.
For series [11], the system named is Rattus norvegicus. Put plainly: Antipyretic activity against yeast-induced hyperpyrexia in hyperthermic rat assessed as rectal temperature at one-tenth of LD50 administered subcutaneously 18 hrs after yeast challenge measured after 2 hrs (Rvb=39.11 +/- 0.26 degC). The series is classed as functional.
Series [12] deals with Mus musculus. Put plainly: Analgesic activity in mouse assessed as protection against acetic acid-induced writhing at one-tenth of LD50 administered subcutaneously 30 mins before acetic acid challenge measured after 2 hrs relative to control. The series is classed as functional.
The nature of series [13]: Toxicity in sc dosed albino mouse up to 24 hrs. Particulars: in vivo. The series is classed as organism-based.
In series [14] the test system is Rattus norvegicus. In words: Antiinflammatory activity against carrageenan-induced foot paw edema in rat assessed as reduction in paw size at one-tenth of LD50 administered subcutaneously 30 mins before carrageenan challenge measured after 3 hrs relative to control. It is filed as functional. Also noted: scale not given: the % may be the effect or the level left.

In series [15] the test system is Rattus norvegicus. In words: Antipyretic activity against yeast-induced hyperpyrexia in hyperthermic rat assessed as rectal temperature at one-tenth of LD50 administered subcutaneously 18 hrs after yeast challenge measured after 1 hr (Rvb=39.24 +/- 0.22 degC). It is filed as functional.
Series [16] concerns Rattus norvegicus. Put plainly: Antipyretic activity against yeast-induced hyperpyrexia in hyperthermic rat assessed as rectal temperature at one-tenth of LD50 administered subcutaneously 18 hrs after yeast challenge measured after 4 hrs (Rvb=39.17 +/- 0.20 degC). It is filed as functional.
Series [17] concerns Rattus norvegicus. Put plainly: Antipyretic activity against yeast-induced hyperpyrexia in hyperthermic rat assessed as rectal temperature at one-tenth of LD50 administered subcutaneously 18 hrs after yeast challenge measured after 3 hrs (Rvb=39.20 +/- 0.24 degC). It is filed as functional.
Series [18] relates to Mus musculus. In words: Analgesic activity in mouse assessed as protection against acetic acid-induced writhing at one-tenth of LD50 administered subcutaneously 30 mins before acetic acid challenge measured after 1 hr relative to control. The series is classed as functional.
Series [19] has as its system Mus musculus. In words: Analgesic activity in mouse assessed as protection against acetic acid-induced writhing at one-tenth of LD50 administered subcutaneously 30 mins before acetic acid challenge measured after 4 hrs relative to control. It is filed as functional.

Molecules are shown by their SMILES.

For `Cc1ccc(-c2cc(C(F)(F)F)nn2-c2ccc(S(N)(=O)=O)cc2)cc1` [CELECOXIB], in series [1], the Activity was found to be 39.67%.
For the compound `CC(=O)Nc1ccc(O)cc1` [ACETAMINOPHEN], the Activity was 37.16 °C in series [2], 37.2 °C in [3], 37.27 °C in series [4] and 37.38 °C in series [5].
With `O=C([O-])Cc1ccccc1Nc1c(Cl)cccc1Cl.[Na+]` [DICLOFENAC SODIUM], the Activity in [6] amounted to 68.44%; in [7], 75.24%; in series [8] it was 74.02%; in series [9], 55.82%.
By LD50 is commonly meant the dose at which mortality reaches 50%. Consider `N#Cc1c(-c2cccnc2)cc(-c2c(O)ccc3c(-c4ccccc4)cc(=O)oc23)[nH]c1=N`, for which the Activity in series [10] turned out to be 5.15%; in series [11], 38.94 °C; in series [12], 7.02%; in series [14], 16.21%; in [15], 39.11 °C; in [16], 38.91 °C. For the same compound, the Activity is 38.91 °C in series [17], 7.49% in [18] and 5.15% in series [19]. In series [13], this compound had an LD50 at 24 h of 370 mg/kg.
Take `O=c1cc(-c2ccccc2)c2ccc(O)c(C3=NNC(c4ccc(Cl)cc4)C3)c2o1` (centres undefined): the Activity in series [10] stood at 1.65%; in [11], 38.84 °C; in [12], 1.65%; in series [14], 17.4%; in series [15], 38.9 °C; in [16], 38.91 °C. The Activity in [17] came out at 38.9 °C; in [18], 0.71%; in series [19] it was 1.18%. This compound also came in with an LD50 at 24 h in [13] of 310 mg/kg.
Take `N#Cc1c(-c2ccccc2O)cc(-c2c(O)ccc3c(-c4ccccc4)cc(=O)oc23)[nH]c1=N`: the Activity in series [10] was 9.62%; in series [11] it was 38.91 °C; in series [12], 9.38%; in series [14], 16.31%; in series [15], 39.01 °C; in [16], 38.94 °C. The Activity in series [17] stood at 38.91 °C; in series [18], 9.62%; in series [19], 2.58%. In addition, the LD50 at 24 h in series [13] was found to be 310 mg/kg.
As to `COc1ccc(/C=C/C(=O)c2c(O)ccc3c(-c4ccccc4)cc(=O)oc23)cc1`, the Activity in series [10] came to 9.41%; in [11], 38.91 °C; in series [12] it was 9.41%; in [14], 12.35%; in [15] it was 38.91 °C; in series [16] it was 39.11 °C. The Activity was found to be 38.95 °C in series [17], 9.41% in series [18] and 3.52% in series [19]. This compound returned a median lethal dose (LD50) at 24 h in [13] of 290 mg/kg.
With `CN(C)c1ccc(-c2cc(-c3c(O)ccc4c(-c5ccccc5)cc(=O)oc34)[nH]c(=O)c2C#N)cc1`, the Activity in series [10] stood at 7.54%; in [11] it was 38.91 °C; in series [12], 7.54%; in series [14] it was 7.24%; in [15], 38.91 °C; in [16], 39.11 °C. The Activity in [17] worked out at 38.9 °C; in [18] it was 9.66%; in [19] it was 2.35%. Besides, in series [13], the LD50 at 24 h is 390 mg/kg.
Take `COc1ccc(-c2cc(-c3c(O)ccc4c(-c5ccccc5)cc(=O)oc34)[nH]c(=O)c2C#N)cc1`: the Activity in series [10] worked out at 9.47%; in series [11], 38.71 °C; in series [12], 2.84%; in [14], 5.78%; in [15], 38.81 °C; in series [16] it was 38.91 °C. Further, the Activity in series [17] was determined as 38.64 °C; in [18], 0.94%; in series [19], 1.18%. In addition, the LD50 at 24 h in series [13] is 330 mg/kg.
On to `O=c1cc(-c2ccccc2)c2ccc(O)c(C3=NN(c4ccc([N+](=O)[O-])cc4[N+](=O)[O-])C(c4ccc(Cl)cc4)C3)c2o1` (centres undefined), for which the Activity was found to be 0.93% in [10]; 38.91 °C in [11]; 1.4% in series [12]; 11.27% in series [14]; 38.81 °C in series [15]; 38.94 °C in series [16]. Also, the Activity in [17] was found to be 38.91 °C; in [18], 0.93%; in series [19] it was 1.4%. The compound further registered an LD50 at 24 h in series [13] of 390 mg/kg.
On to `N#Cc1c(-c2cccnc2)cc(-c2c(O)ccc3c(-c4ccccc4)cc(=O)oc23)[nH]c1=O`, for which the Activity in series [10] is 3.57%; in series [11], 38.81 °C; in [12], 8.8%; in [14] it was 7.17%; in series [15], 38.71 °C; in series [16], 38.91 °C. For the same compound, the Activity in [17] came out at 38.81 °C; in series [18], 8.8%; in series [19], 0.95%. In [13], this compound registered an LD50 at 24 h of 370 mg/kg.
On to `COc1ccc(C2CC(c3c(O)ccc4c(-c5ccccc5)cc(=O)oc34)=NN2c2ccc([N+](=O)[O-])cc2[N+](=O)[O-])cc1` (centres undefined), for which the Activity is 3.58% in series [10]; 38.91 °C in series [11]; 4.78% in series [12]; 11.61% in [14]; 38.81 °C in series [15]; 38.91 °C in [16]. Further, the Activity in series [17] was determined as 38.91 °C; in series [18], 3.58%; in series [19], 3.58%. The compound also had a 50% lethal dose (LD50) at 24 h in series [13] of 370 mg/kg.
As for `O=c1cc(-c2ccccc2)c2ccc(O)c(C3=NN(c4ccccc4)C(c4ccc(Cl)cc4)C3)c2o1` (centres undefined), the Activity was determined as 3.35% in series [10]; 38.81 °C in series [11]; 2.63% in [12]; 18.85% in series [14]; 38.91 °C in [15]; 39.05 °C in [16]. Also, the Activity in series [17] was 38.91 °C; in series [18], 0.71%; in series [19], 3.11%. Moreover, in series [13], the LD50 at 24 h stood at 330 mg/kg.
